From patent publication US8378104B2 (OSI Pharmaceuticals, LLC, priority 2010, dated 2013)
Structures can show the parent of a compound that is named as a salt.

Key:
[1] = target: T1, TAK1-TAB1 fusion protein (Homo sapiens, UniProt O43318); assay: TAK1 biochemical assay (AlphaScreen, GST-MAP2K7 substrate); settings: TAK1-TAB1 fusion protein, GST-MAP2K7 substrate; read-out: mean TAK1 IC50 (Col. A)
T1 construct: purchased Carna
T1 sequence (O43318 with tags, fused parts or gaps limits assumed): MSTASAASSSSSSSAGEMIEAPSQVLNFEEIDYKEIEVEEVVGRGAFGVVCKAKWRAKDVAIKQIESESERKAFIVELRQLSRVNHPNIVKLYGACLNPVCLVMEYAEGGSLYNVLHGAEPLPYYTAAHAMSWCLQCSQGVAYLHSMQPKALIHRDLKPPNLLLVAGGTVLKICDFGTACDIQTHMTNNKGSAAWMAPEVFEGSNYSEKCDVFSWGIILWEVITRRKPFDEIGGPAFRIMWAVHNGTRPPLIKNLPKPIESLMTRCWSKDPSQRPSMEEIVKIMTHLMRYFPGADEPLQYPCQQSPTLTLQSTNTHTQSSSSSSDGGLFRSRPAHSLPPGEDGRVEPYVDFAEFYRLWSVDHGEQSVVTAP

[2] = tested on: pJNK in HCT-116 cells; assay: Phospho-JNK (Thr183/Tyr185) Meso Scale ELISA assay, TNFα-stimulated HCT-116 cells; type: cell-based; settings: Homo sapiens, read-out: mean HCT-116 pJNK ELISA IC50 (Col. B)
Summary of the method: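 HCT-116 cells in 1% FCS medium were pretreated with compound for 4 hrs at 37° C, then stimulated with TNFα at 10 ng/mL final for 10 minutes. Lysates were taken in ice-cold lysis buffer with phosphatase and protease inhibitors, and phospho-JNK (Thr183/Tyr185) was measured by Meso Scale ELISA.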

[3] = tested on: p-p38 in HCT-116 cells; assay: Phospho-p38 Meso Scale ELISA assay, TNFα-stimulated HCT-116 cells; type: cell-based; settings: Homo sapiens, read-out: mean HCT-116 p-p38 ELISA IC50 (Col. C)
Procedure: Detailed below are ELISA assays for pJNK and p38, and a TAK1 biochemical assay. […] In Table 1, Col.
• 1. Plate HCT-116 cells at 25,000 per well in 100 uL in 96 well clear dishes in normal growth medium. Day 2: • 1. Aspirate medium and replace with 90 μl reduced serum growth medium (1% FCS), incubate for 2 hours at 37° C. • 2. Make drugs at 10× in reduced serum medium and add 10 uL per well. • 3. Incubate at 37° C. for 4 hrs. • 4. Bring capture plates to room temperature. • 5. Block with 150 μl Blocking Solution (provided with kit) (600 mg Blocker A into 20 mL 1× Wash Buffer per plate) at room temperature with shaking. • 6. Wash plates 4× with 200 μl 1× wash buffer (10× provided with kit) before transferring lysates. • 7. Dilute TNFα to […] in reduced serum medium (this makes a 10× working stock). • 8. Add 10 μl TNFα to all wells except negative control wells, final concentration is 10 ng/mL. • 9. Incubate at 37° C. for 10 minutes. • 10. Remove medium by flicking into sink • 11. Wash cells with 100 uL ice cold PBS. • 12. Remove PBS by flicking into sink and patting on paper towels. • 13. Lyse cells in 50 μl ice cold 1× Complete Lysis Buffer plus Phosphatase and Protease inhibitors (all provided with kit) (10 mL Tris Lysis Buffer+200 μl Protease inhibitor solution+100 μl Phosphatase inhibitor I+100 μl Phosphatase inhibitor II). • 14. Incubate with shaking at 4° C. for 30 minutes. • 15. Transfer 45 μl to capture plate, cover with adhesive cover, and incubate at 4° C. over night with shaking. • Day 3: • 1. Wash plates 4× with 200 μl 1× wash buffer (10× provided with kit). • 2. […] Incubate at room temperature with shaking for 1 hour. • 4. Wash 4× with 200 μl 1× Wash Buffer. • 5. […] Read on Sector Imager. Phospho-p38 Meso Scale ELISA Assay Day 1: • 1. Plate HCT-116 cells at 25,000 per well in 100 uL in 96 well clear dishes in normal growth medium. zday 2: • 1. Aspirate medium and replace with 90 μl reduced serum growth medium (1% FCS), incubate for 2 hours at 37° C. • 2. Make drugs at 10× in reduced serum medium and add 10 uL per well. • 3. Incubate at 37° C. for 4 hrs. • 4. Bring capture plates to room temperature. • 5. Block with 150 μl Blocking Solution (provided with kit) (600 mg Blocker A into 20 mL 1× Wash Buffer per plate) at room temperature with shaking. • 6. Wash plates 4× with 200 μl 1× wash buffer (10× provided with kit) before transferring lysates. • 7. Dilute TNFα to […] in reduced serum medium (this makes a 10× working stock). • 8. Add 10 μl TNFα to all wells except negative control wells, final concentration is 10 ng/mL. • 9. Incubate at 37° C. for 10 minutes. • 10. Remove medium by flicking into sink • 11. Wash cells with 100 uL ice cold PBS. • 12. Remove PBS by flicking into sink and patting on paper towels. • 13. Lyse cells in 50 μl ice cold 1× Complete Lysis Buffer plus phosphatase and protease inhibitors (all provided with kit) (10 mL Tris Lysis Buffer+200 μl Protease inhibitor solution+100 μl Phosphatase inhibitor I+100 μl Phosphatase inhibitor II). • 14. Incubate with shaking at 4° C. for 30 minutes. • 15. Dilute lysates before transferring to capture plate with 100 μl Complete p38 Lysate • Dilution Buffer (provided with kit) (10 mL of Diluent 20±200 μl Protease inhibitor solution+100 μl Phosphatase inhibitor I+100 μl Phosphatase inhibitor II). • 16. Transfer 50 μl of diluted lysates to capture plate, cover with adhesive cover, and incubate at 4° C. over night with shaking. Day 3: • 1. Wash plates 4× with 200 μl 1× wash buffer (10× provided with kit). • 2. […] Incubate at room temperature with shaking for 1 hour. • 4. Wash 4× with 200 μl 1× Wash Buffer. • 5. […] Read on Sector Imager. TAK1 Biochemical Assay

IC50 [1] | IC50 [2] | IC50 [3] | Structure (SMILES)
100 to 1000 nM | < 100 nM | 100 to 1000 nM | CS(=O)(=O)N1CCC(n2cc(-c3cnc(N)c4oc(-c5cccc6cnccc56)cc34)cn2)CC1 [Example 80, 2-(isoquinolin-5-yl)-4-{1-[1-(methylsulfonyl)piperidin-4-yl]-1H-pyrazol-4-yl}furo[2,3-c]pyridin-7-amine]
100 to 1000 nM | 100 to 1000 nM | 100 to 1000 nM | CC(=O)N1CCC(n2cc(-c3cnc(N)c4oc(-c5cccc6cnccc56)cc34)cn2)CC1 [Example 81, 1-(4-{4-[7-amino-2-(isoquinolin-5-yl)furo[2,3-c]pyridin-4-yl]-1H-pyrazol-1-yl}piperidin-1-yl)ethanone]
100 to 1000 nM | 100 to 1000 nM | 100 to 1000 nM | CS(=O)(=O)CCN1CCC(n2cc(-c3cnc(N)c4oc(-c5cccc6cnccc56)cc34)cn2)CC1 [Example 82, 2-(isoquinolin-5-yl)-4-(1-{1-[2-(methylsulfonyl)ethyl]piperidin-4-yl}-1H-pyrazol-4-yl)furo[2,3-c]pyridin-7-amine]
100 to 1000 nM | < 100 nM | 100 to 1000 nM | Nc1ncc(-c2cnn(C3CCN(CCF)CC3)c2)c2cc(-c3cccc4cnccc34)oc12 [Example 83, 4-{1-[1-(2-fluoroethyl)piperidin-4-yl]-1H-pyrazol-4-yl}-2-(isoquinolin-5-yl)furo[2,3-c]pyridin-7-amine]
1000 to 10000 nM | 100 to 1000 nM | 100 to 1000 nM | Nc1ncc(-c2cnn(C3CCN(CC(F)(F)F)CC3)c2)c2cc(-c3cccc4cnccc34)oc12 [Example 84, 2-(isoquinolin-5-yl)-4-{1-[1-(2,2,2-trifluoroethyl)piperidin-4-yl]-1H-pyrazol-4-yl}furo[2,3-c]pyridin-7-amine]
100 to 1000 nM | 100 to 1000 nM | 100 to 1000 nM | Nc1ncc(-c2cnn(C3CCN(CCO)CC3)c2)c2cc(-c3cccc4cnccc34)oc12 [Example 85, 2-(4-{-4-[7-amino-2-(isoquinolin-5-yl)furo[2,3-c]pyridin-4-yl]-1H-pyrazol-1-yl}piperidin-1-yl)ethanol]
< 100 nM | 1000 to 10000 nM | 1000 to 10000 nM | CC(=O)N1CCC(n2cc(-c3cnc(N)c4oc(-c5c[nH]c6cnccc56)cc34)cn2)CC1 [Example 86, 1-(4-{4-[7-amino-2-(1H-pyrrolo[2,3-c]pyridin-3-yl)furo[2,3-c]pyridin-4-yl]-1H-pyrazol-1-yl}piperidin-1-yl)ethanone]
< 100 nM | 100 to 1000 nM | 1000 to 10000 nM | Nc1ncc(-c2cn[nH]c2)c2cc(-c3c[nH]c4cnccc34)oc12 [Example 87, 4-(1H-pyrazol-4-yl)-2-(1H-pyrrolo[2,3-c]pyridin-3-yl)furo[2,3-c]pyridin-7-amine trifluoroacetic acid salt]
< 100 nM | 100 to 1000 nM | 100 to 1000 nM | Cn1cc(-c2cnc(N)c3oc(-c4c[nH]c5cnccc45)cc23)cn1 [Example 88, 4-(1-methyl-1H-pyrazol-4-yl)-2-(1H-pyrrolo[2,3-c]pyridin-3-yl)furo[2,3-c]pyridin-7-amine trifluoroacetic acid salt]
< 100 nM | 100 to 1000 nM | 100 to 1000 nM | Nc1ncc(-c2cnn(C3CCCCC3)c2)c2cc(-c3c[nH]c4cnccc34)oc12 [Example 89, 4-(1-cyclohexyl-1H-pyrazol-4-yl)-2-(1H-pyrrolo[2,3-c]pyridin-3-yl)furo[2,3-c]pyridin-7-amine]
< 100 nM | 100 to 1000 nM | < 100 nM | CC(C)n1cc(-c2cnc(N)c3oc(-c4c[nH]c5cnccc45)cc23)cn1 [Example 90, 4-[1-(propan-2-yl)-1H-pyrazol-4-yl]-2-(1H-pyrrolo[2,3-c]pyridin-3-yl)furo[2,3-c]pyridin-7-amine]
> 10000 nM | 1000 to 10000 nM | 1000 to 10000 nM | CC(=O)N1CCC(n2cc(-c3cnc(N)c4oc(-c5cc(C(F)(F)F)cc(C(F)(F)F)c5)cc34)cn2)CC1 [Example 91, 1-[4-(4-{7-amino-2-[3,5-bis(trifluoromethyl)phenyl]furo[2,3-c]pyridin-4-yl}-1H-pyrazol-1-yl)piperidin-1-yl]ethanone]
1000 to 10000 nM | 100 to 1000 nM | 100 to 1000 nM | CC(=O)N1CCC(n2cc(-c3cnc(N)c4oc(-c5ccc6[nH]ccc6c5)cc34)cn2)CC1 [Example 92, 1-(4-{4-[7-amino-2-(1H-indol-5-yl)furo[2,3-c]pyridin-4-yl]-1H-pyrazol-1-yl}piperidin-1-yl)ethanone]
> 10000 nM | 1000 to 10000 nM | 1000 to 10000 nM | CC(=O)N1CCC(n2cc(-c3cnc(N)c4oc(-c5cccc6c5oc5ccccc56)cc34)cn2)CC1 [Example 93, 1-(4-{4-[7-amino-2-(dibenzo[b,d]furan-4-yl)furo[2,3-c]pyridin-4-yl]-1H-pyrazol-1-yl}piperidin-1-yl)ethanone]
100 to 1000 nM | 100 to 1000 nM | 1000 to 10000 nM | CC(=O)N1CCC(n2cc(-c3cnc(N)c4oc(-c5ccc6[nH]ncc6c5)cc34)cn2)CC1 [Example 94, 1-(4-{4-[7-amino-2-(1H-indazol-5-yl)furo[2,3-c]pyridin-4-yl]-1H-pyrazol-1-yl}piperidin-1-yl)ethanone]
100 to 1000 nM | 1000 to 10000 nM | > 10000 nM | CC(=O)N1CCC(n2cc(-c3cnc(N)c4oc(-c5ccc6c(c5)C(=O)NC6)cc34)cn2)CC1 [Example 96, 6-{4-[1-(1-acetylpiperidin-4-yl)-1H-pyrazol-4-yl]-7-aminofuro[2,3-c]pyridin-2-yl}-2,3-dihydro-1H-isoindol-1-one]
> 10000 nM | > 10000 nM | > 10000 nM | CC(=O)N1CCC(n2cc(-c3cnc(N)c4oc(-c5ccc6c(c5)CNC6=O)cc34)cn2)CC1 [Example 98, 5-{4-[1-(1-acetylpiperidin-4-yl)-1H-pyrazol-4-yl]-7-aminofuro[2,3-c]pyridin-2-yl}-2,3-dihydro-1H-isoindol-1-one]
1000 to 10000 nM | 1000 to 10000 nM | 1000 to 10000 nM | CC(=O)N1CCC(n2cc(-c3cnc(N)c4oc(-c5cccc(S(C)(=O)=O)c5)cc34)cn2)CC1 [Example 101, 1-[4-(4-{7-amino-2-[3-(methylsulfonyl)phenyl]furo[2,3-c]pyridin-4-yl}-1H-pyrazol-1-yl)piperidin-1-yl]ethanone]
